Tests used:
[1] = target: T1, Protein farnesyltransferase (Bos taurus, UniProt P29702+P49355); test: Inhibition of bovine farnesyltransferase; assay type: protein-complex assay
[2] = target: T2, Geranylgeranyl transferase type I (Bos taurus, UniProt P29702+Q5EAD5); test: Inhibition of bovine geranylgeranyl transferase; assay type: protein-complex assay
[3] = target: T3, Protein farnesyltransferase (Mus musculus) (UniProt Q61239+Q8K2I1); test: (§1) Percent inhibition of H-ras processing in transformed NIH3T3 cells at 100 nM; assay type: functional, cell-based
[4] = target: Protein farnesyltransferase (Mus musculus, UniProt Q61239+Q8K2I1); test: Inhibition of H-ras processing in transformed NIH3T3 cells; assay type: functional, cell-based
[5] = target: T3, Protein farnesyltransferase (Mus musculus); test: Percent inhibition of H-ras processing in transformed NIH3T3 cells at 1000 nM; assay type: functional, cell-based
[6] = target: T3, Protein farnesyltransferase (Mus musculus); test: as §1; assay type: functional, cell-based; remark: listed apart in the source
[7] = target: T2, Geranylgeranyl transferase type I; test: Inhibition of bovine Geranylgeranyltransferase; assay type: protein-complex assay
[8] = target: T1, Protein farnesyltransferase; test: Inhibition of bovine Farnesyltransferase; assay type: protein-complex assay

SMILES	IC50 [1]	IC50 [2]	inhibition [3]	further results
Cn1c(=O)cc(-c2cccc(Cl)c2)c2cc(Cn3cncc3C(O)c3ccc(C#N)cc3)ccc21 (configuration not stated)	44 nM	> 10000 nM	–	–
Cn1c(=O)cc(-c2cccc(Cl)c2)c2cc(C(=O)c3cncn3Cc3ccc(C#N)cc3)ccc21	29 nM	< 10000 nM	30%	–
Cn1cncc1C(OCc1ccc2c(c1)c(-c1cccc(Cl)c1)cc(=O)n2C)c1ccc(C#N)cc1 (configuration not stated)	80 nM	–	–	–
Cn1c(=O)cc(-c2cccc(Cl)c2)c2cc(C(N)c3cncn3Cc3ccc(C#N)cc3)ccc21 (configuration not stated)	3.8 nM	22000 nM	42%	–
Cn1c(=O)cc(-c2cccc(Cl)c2)c2cc(Cn3cncc3Cc3ccc(C#N)cc3)cnc21	10 nM	4000 nM	39%	–
N#Cc1ccc(Cn2cncc2Cn2ccc3c(C#N)c(-c4cccc5ccccc45)ccc32)cc1	0.15 nM	110 nM	–	EC50 [4]: 2.1 nM
Cn1c(=O)cc(-c2cccc(Cl)c2)c2cc(C(O)c3cncn3Cc3ccc(C#N)cc3)ccc21 (configuration not stated)	4.7 nM	17000 nM	32%	–
Cn1c(=O)cc(-c2cccc(Cl)c2)c2cc(Cn3cncc3Cn3ccc(C#N)c3)ccc21	560 nM	–	–	–
Cn1c(=O)cc(-c2cccc(Cl)c2)c2cc(Cn3cncc3COc3ccc(C#N)cc3)ccc21	> 1000 nM	–	–	–
Cn1c(=O)cc(-c2cccc(Cl)c2)c2cc(C(NC=O)c3cncn3Cc3ccc(C#N)cc3)ccc21 (configuration not stated)	2.1 nM	> 10000 nM	28%	–
NC(=O)N1CCC(CC(=O)N2CCC([C@H]3c4ncc(Br)cc4CCc4cc(Cl)cc(Br)c43)CC2)CC1 [LONAFARNIB]	–	> 10000 nM	100%	–
N#Cc1ccc(Cn2cncc2Cn2cc(C#N)c(-c3cccc4ccccc34)c2)cc1	0.58 nM	140 nM	–	EC50 [4]: 34 nM
N#Cc1ccc(Cn2cncc2Cn2ccc3cc(-c4cccc5ccccc45)ccc32)cc1	0.93 nM	270 nM	–	EC50 [4]: 5.7 nM
Cn1c(=O)cc(-c2cccc(Cl)c2)c2cc(Cn3cncc3Cn3ccc(C(=O)N4CCOCC4)c3)ccc21	> 1000 nM	–	–	–
Cn1cncc1[C@@](N)(c1ccc(Cl)cc1)c1ccc2c(c1)c(-c1cccc(Cl)c1)cc(=O)n2C	–	–	1.6%	–
N#Cc1cn(Cc2cncn2Cc2ccc3c(c2)OCO3)cc1-c1cccc2ccccc12	6.1 nM	520 nM	–	inhibition [5]: 68%
Cn1c(=O)cc(-c2cccc(Cl)c2)c2cc(Cn3cncc3COCc3ccc(C#N)cc3)ccc21	> 1000 nM	–	–	–
Cn1c(=O)cc(-c2cccc(Cl)c2)c2cc(Cn3cncc3Cc3ccc(C#N)cc3)ccc21	7.2 nM	> 10000 nM	57%	inhibition [6]: 57%; IC50 [7]: 17000 nM; IC50 [8]: 4.7 nM
Cn1c(=O)cc(-c2cccc(Cl)c2)c2cc(COCc3cncn3Cc3ccc(C#N)cc3)ccc21	89 nM	–	–	–
Cn1c(=O)cc(-c2cccc(Cl)c2)c2cc(Cn3cncc3Cn3ccc(=O)cc3)ccc21	> 1000 nM	–	–	–
CC(=O)OC(c1ccc(C#N)cc1)c1cncn1Cc1ccc2c(c1)c(-c1cccc(Cl)c1)cc(=O)n2C (configuration not stated)	> 1000 nM	> 1000 nM	–	–
